Results from patent publication US8501183B2, “Immunogenic compositions and diagnostic and therapeutic uses thereof” (The Walter and Eliza Hall Institute of Medical Research, priority 2002, dated 2013).

Assays:
[1] = IgG response of mice immunized with synthetic GPI glycan conjugate; type: in vivo; conditions: rodents
Method: All experiments were in accordance with local Animal Ethics Committee regulations. Young adult C57BL6 mice from Jackson Laboratories were pre-bled and inoculated with 6.5 μg KLH-glycan (0.176 μg glycan, n=16) or KLH-cysteine (sham-immunized, n=24) emulsified in Freund's Complete Adjuvant, and boosted with equal amounts of immunogen in Incomplete Freund's Adjuvant at 2 weekly intervals. After two boosts they were rested and injected i.p with 1×10^6 P. berghei ANKA-infected erythrocytes. Naïve mice (n=12) served as unimmunized controls. Parasitemias were assessed from Giemsa-stained thin films. Mortality was checked twice daily. Mice were judged as developing cerebral malaria if displaying neurological signs such as loss of reflex or ataxia, and dying between days 5 to 12 post-infection with relatively low parasitemia levels (below 15%). Differences in survival curves of P. berghei infected mice across this time-period were assessed by Cox-Mantel logrank transformation on Kaplan-Meier plots. Deaths from day 14 onwards with high parasitaemia (>60%) and low rates of cerebral vascular occlusion were ascribed to hyperparasitaema/haemolysis, and all animals failing to develop cerebral malaria eventually succumbed to this syndrome.
The synthetic malarial GPI glycan was immunogenic in rodents. […] No reactivity to GPI glycan was detected in pre-immune sera or in animals receiving sham-conjugated KLH. […]

[2] = system: human antibody responses to the native GPI toxin; assay: Competition ELISA, synthetic glycan vs GPI; type: binding; conditions: competitor in molar excess
[3] = system: anti-Glycan antibodies in human serum; assay: ELISA of human serum against synthetic glycan antigen; type: binding; conditions: serum of a malaria-exposed Papua New Guinean donor; BSA-conjugated glycan
[4] = type: in vivo, C3H/HeJ and C57B16 mice; conditions: primed with 20 mg D-galactosamine, agent after 1 hour
Method: In addition a standard murine model of TNF-driven lethality was used to determine whether GPI mediates parasite-induced acute toxic shock. This model manifests disseminated intravascular coagulation, peripheral vascular failure and shock, and thus has clinical features in common with the human “algid malaria” syndrome. LPS-non-responsive C3H/HeJ and C57B16 mice were primed with 20 mg D-galactosamine followed after 1 hour by purified GPI, PE or PBS alone.

[5] = system: P. berghei ANKA; assay: P. berghei ANKA cerebral malaria challenge of immunized mice; type: in vivo, C57Bl/6 mice
Excerpt: Mice were immunized by three successive boosts of free intact malarial GPI emulsified in Incomplete Freund's Adjuvant spaced two weeks apart. Control mice received an equal amount of IFA alone. After immunization, sera were bled and the titres of anti-GPI antibodies determined by ELISA. All animals immunized with GPI developed broadly similar levels of anti-GPI antibodies (range 1/1024-1/4096) among individual animals. […] Two weeks after the final boost mice were challenged with P. berghei ANKA. Parasitaemia, the development of neurological complications, and mortality were recorded daily. No difference in parasitaemia was observed. In the control group, 100% of animal manifested between day 5 and 9 an aggressive cerebral syndrome with neurological signs proceeding to rapid death with 12 hours. […]
The P. berghei ANKA murine cerebral malaria model has many features in common with the human cerebral malaria syndrome. […] Parasitaemia, the development of neurological complications, and mortality were recorded daily. […]

[6] = Competition / PI-specific ELISA, epitope mapping of anti-GPI antibodies; type: binding; conditions: sera of mice immunized with free GPI
Method: Coupling of the purified GPI glycan to proteins was undertaken as above. To measure anti-lipid reactivities, we utilized commercially available phosphatidylinositol from Sigma with identical composition to the malarial GPI, namely dipalmitoyl-PI. 2 mg PI was coupled to defatted BSA according to published protocols (Bate, C. A. W., Taverne, J., Kwiatkowski, D., and Playfair, J. H. L. (1993) Immunology 79:138-145).
From a 1/32 dilution, sera or mAbs were titrated two-fold in 1% BSA in PBS, 0.05% Tween-20, and pre-incubated for 4 hours at room temperature with a molar excess of competitior (20 μg/ml PI, or phosphatidylserine (PS), or diluent alone). Antigen (BSA-PI or BSA alone) at 20 μg/ml in phosphate binding buffer was incubated overnight in 50 μl volumes in flat-bottomed Immunlon 96-well plates, followed by extensive washing with buffer. The plates were blocked with 1% BSA in PBS for several hours. 50 μl aliquots of titrated antibody with or without competitor were incubated in triplicate for 2 hours at room temperature, followed by extensive washing with 1% BSA 0.05% Tween-20 in PBS. An aliquot of affinity purified, biotin-labelled isotype specific goat anti-mouse second antibody was incubated as above, followed by further washing and the addition of streptavidin-alkaline phosphatase. […] Background binding to BSA-coated plates was determined in parallel. […]

[7] = ELISA titres of anti-GPI antibodies in sera of immunized mice; type: in vivo; conditions: mice immunized with free GPI in IFA
Method: Antigen (GPI-OVA, Glycan-OVA, BSA-PI, OVA or BSA alone) at 20 μg/ml in phosphate binding buffer was incubated overnight in 50 μl volumes in flat-bottomed Immunlon 96-well plates, followed by extensive washing with buffer. The plates were blocked with 1% BSA, 1% OVA in PBS for several hours. From a 1/32 dilution, sera were titrated two-fold in 1% BSA, 1% OVA in PBS, and 50 μl aliquots incubated in triplicate for 2 hours at room temperature, followed by extensive washing with 1% BSA, 1% OVA 0.05% Tween-20 in PBS. An aliquot of affinity purified, biotin-labelled isotype specific goat anti-mouse second antibody was incubated as above, followed by further washing and the addition of streptavidin-alkaline phosphatase. After 30 minutes the plates were washed again and colourimetric development initiated by the addition of p-Nitrophenylphosphate in diethanolamine buffer. Background binding to BSA/OVA-coated plates was determined in parallel. […]
Mice were immunized by three successive boosts of free intact malarial GPI emulsified in Incomplete Freund's Adjuvant spaced two weeks apart. […] After immunization, sera were bled and the titres of anti-GPI antibodies determined by ELISA. […] Parasitaemia, the development of neurological complications, and mortality were recorded daily. […]

| Substance | immunogenicity [1] | competition of human antibody responses to native GPI [2] | detection of antibodies in human serum [3] | recipients with lethal shock [4] | parasitaemia ([5]; after P. berghei ANKA challenge two weeks after final boost, vs control groups) | rate of deaths ([5]; free GPI in IFA vs IFA alone, P. berghei ANKA challenge) | epitope specificity of the antibody response [6] | isotype of the anti-GPI response [7] |
| --- | --- | --- | --- | --- | --- | --- | --- | --- |
| NH2—CH2—CH2—PO4-(Manα1-2)6Manα1-2Manα1-6Manα1-4GlcNH2α1-6myo-Insositol-1,2 cyclic phosphate [synthetic GPI glycan] | immunogenic | compete out the majority of human antibody responses to the native GPI toxin | able specifically to detect anti-Glycan antibodies in human serum |  |  |  |  |  |
| NH—CH2—CH2—PO4-(Manα1-2)-6Manα1-2Manα1-6Manα1-4GlcN-H2α1-6(myristoyl)-myo-Inositol-1-PO4-dipalmitoylglycerol [free GPI] |  |  |  | 100% | No difference | noticeable faster rate | directed predominantly towards the lipidic (phosphatidylinositol, PI) domain of the molecule | predominantly IgM |
